{
  "source": "patent US10144726B2",
  "about": "“Modulators of the p70S6 kinase for use in the treatment of brain disorders and triple-negative breast cancer” (SENTINEL ONCOLOGY LIMITED, priority 2015, dated 2018)",
  "key": {"MDA-MB-231 cells": {"system": "MDA-MB-231 cells", "assay": "Tumour initiation and metastasis in an in vivo model of triple negative breast cancer (MDA-MB-231, mammary fat pad)", "parameters": "species or system female athymic nude mice", "excerpt": "In order to test the efficacy of an inhibitor of S6K1 in an in vivo model of tumour initiation and metastasis, the following experiment was established:\nA total of 30 female athymic nude mice (Hsd:Athymic Nude-Foxn1^nu) were purchased from Harlan (UK) and acclimatised for 7 days prior to study commencement. Animals were housed in IVC cages (5 per cage) with individual mice identified by ear punch. All animals were allowed free access to a standard certified commercial diet and sanitised water during the study. The holding room was maintained under standard conditions: 20-24° C., 40-70% humidity and a 12 h light/dark cycle.\nOn day −1, animals were randomly assigned to treatment groups as indicated in the table below, and drug treatment commenced. On day 0, MDA-MB-231 cells (1×10^6 in matrigel) were implanted into the second mammary fat pad.\nThe dosing route was PO and the formulation was as follows: 10% DMSO/90% hydroxypropyl-β-cyclodextrin (20% w/v aqueous)\n(1) Time to palpation of tumour (latency) (2) tumour volume (3) tumour and organ weights as a measure of metastasis (4) visual appearance of metastatic nodules in the lungs"}, "MDA-MB-231 (luc) cells": {"system": "MDA-MB-231 (luc) cells", "assay": "Control of brain metastases arising from MDA-MB-231 (luc) cells after intra-cardiac injection", "format": "in vivo", "excerpt": "In order to test the efficacy of an inhibitor of S6K1 in preventing brain metastases arising from TNBC cells, an in vivo mouse model was established:\nUsing a luciferase-tagged TNBC cell line (MDA-MB-231 (luc)) it was possible to track the spread of metastatic cells to the brain and other major organs via mouse whole-body imaging.\nThe MDA-MB-231(luc) cell-line was derived from MDA-MB-231 cells originally purchased from ATCC. These cells were stably transfected with pGL4.51 (Promega) using Lipofectamine 2000 (Life Technologies). Stably transfected colonies were selected for using neomycin and the most highly expressing clone was expanded. The cells have similar in vivo growth characteristics as the parental MDA-MB-231 cells.\nFemale athymic mice (Hsd:Athymic Nude-Foxn1^nu) were purchased from Harlan (UK) and acclimatised for 7 days prior to study commencement. Animals were housed in\nThe dosing route was p.o. and the formulation was as follows: 10% DMSO/90% hydroxypropyl-β-cyclodextrin (20% w/v aqueous)\nOn day 0 animals were anaesthetized and injected with 1×10^5 MDA-MB-231 (luc) cells directly into the heart. Intra-cardiac injection was chosen as this method leads to brain metastases. On day +1 animals were imaged using a Xenogen IVIS machine (following IP injection of 150 mg/kg) of D-luciferin). Evidence of light only in the cardiac area was indicative of a failed implantation and these animals were removed from the study. The experiment was commenced with 7 animals per treatment group to guarantee 5 animals per group completed the study.\nAnimals were imaged on 3 occasions during the study: 24 hours following intracardiac injection, 35 days after implantation and at the end of the study (70 days after implantation). For imaging, animals were first injected i.p. with D-luciferin (150 mg/kg) and 10 minutes later the animals were imaged under anaesthesia.\nAt the end of the 70 days, animals were imaged using the same method as described at 35 days. Following this the animals were then sacrificed and brain, liver and lungs were removed and imaged individually for metastatic spread."}, "[1]": {"system": "phosphorylation of S6 Ser235/236 in MCF-7 cells", "assay": "MCF-7 pS6 ELISA (phosphorylation of S6 Ser235/236)", "format": "cell-based", "settings": "Homo sapiens, MCF7; S6 Ser235/236, 1% FBS, 2 h; read-out: (b) MCF-7 pS6 ELISA IC50", "protocol": "The following assay provides IC50 values for inhibition of P70S6K activity in a whole cell assay by determining effects on the phosphorylation of S6^Ser235/236 in MCF-7 cells by ELISA.\nThe following protocol was used: • 1) MCF-7 cells were seeded in 96-well plates at a density of 7000 cells per well and allowed to adhere for 6 h in media containing 10% FBS. • 2) The full serum media was replaced and cells incubated overnight in media containing 1% FBS, prior to addition of test compounds. • 3) Test compounds were prepared from 10 mM DMSO stocks to give final concentration ranges as indicated on graphs. DMSO was constant at a final concentration of 1%. • 4) Test compounds were incubated with cells in duplicate for 2 h at 37° C/5% CO2 in a humidified atmosphere. • 5) The media was removed and cells were lysed by freeze-thawing in cell lysis buffer. • 6) Detection of phosphorylated S6Ser235/236 was then carried out using a PathScan ELISA kit (Cell Signaling Technology #7205). • 7) Lysates were diluted 1:1 with sample diluent before being applied to wells coated with an antibody against phosphorylated-S6 protein. • 8) The ELISA was then performed as stated in the manufacturers' instructions. • 9) The raw data were normalised to control values and analysed using a 4-parameter logistic equation in GraphPad Prism."}, "[2]": {"settings": "250 mg/kg p.o. QD 21 days, vs vehicle"}},
  "data": [
    {"smiles": "C[C@@H](Nc1cnc2cc(-c3cn[nH]c3)ccc2n1)c1cccc(Cl)c1", "note": "[Example 15]", "values": [
      {"measurement": "Mean no. of nodules per lung", "setting": "MDA-MB-231 cells; 250 mg/kg QD × 21, at necroscopy", "result": 1},
      {"measurement": "Lung weight at day 21", "setting": "MDA-MB-231 cells; [2]", "result": "reduction in weight of lungs"},
      {"measurement": "Rate of tumour incidence", "setting": "MDA-MB-231 cells; [2]", "result": "decreases"},
      {"measurement": "Time to palpation of tumour (latency)", "setting": "MDA-MB-231 cells; [2]", "result": "delays"},
      {"measurement": "Tumour weight at day 21", "setting": "MDA-MB-231 cells; [2]", "result": "weighed significantly less"},
      {"measurement": "Tumour volume", "setting": "MDA-MB-231 cells; 250 mg/kg p.o. QD 21 days, vs vehicle, p<0.05", "result": "reduction in volume of tumours which is statistically significant over vehicle"},
      {"measurement": "Incidence of metastasis Brain", "setting": "MDA-MB-231 (luc) cells; 125 mg/kg p.o. BID x 70 days", "result": 0, "unit": "%"},
      {"measurement": "Incidence of metastasis Liver", "setting": "MDA-MB-231 (luc) cells; 125 mg/kg p.o. BID x 70 days", "result": 0, "unit": "%"},
      {"measurement": "Incidence of metastasis Lung", "setting": "MDA-MB-231 (luc) cells; 125 mg/kg p.o. BID x 70 days", "result": 40, "unit": "%"},
      {"measurement": "No. deaths on study", "setting": "MDA-MB-231 (luc) cells; 125 mg/kg p.o. BID x 70 days", "result": 0},
      {"measurement": "Animals with visible metastases, whole body imaging", "setting": "MDA-MB-231 (luc) cells; 125 mg/kg p.o. BID, at 35 days", "result": "0 out of 5"},
      {"measurement": "Tolerability", "setting": "MDA-MB-231 (luc) cells; 70 consecutive days of BID dosing, no treatment related deaths or adverse clinical signs", "result": "well-tolerated"},
      {"measurement": "IC50", "setting": "[1]", "result": 500, "unit": "nM"}
    ]}
  ]
}
